Structures can show the parent of a compound that is named as a salt. Where two headings read alike, the source gives them in different places. Some results are limits rather than exact numbers.

The target of test [1] is hPDE4D (Homo sapiens, UniProt Q08499). The test is described as follows: In-vitro real-time enzyme-coupled spectrophotometric assay for PDE4 enzymes (hPDE4D).
The target of test [2] is hPDE4B (Homo sapiens, UniProt Q07343). The experiment in a line: In-vitro real-time enzyme-coupled spectrophotometric assay for PDE4 enzymes (hPDE4B).
Where [3] appears, read: read-out: hPDE4D activity, enzyme-coupled NADH assay, absorbance at 340 nm.
Where [4] appears, read: read-out: hPDE4B activity, enzyme-coupled NADH assay, absorbance at 340 nm.

Sequence of hPDE4D (Q08499 whole entry): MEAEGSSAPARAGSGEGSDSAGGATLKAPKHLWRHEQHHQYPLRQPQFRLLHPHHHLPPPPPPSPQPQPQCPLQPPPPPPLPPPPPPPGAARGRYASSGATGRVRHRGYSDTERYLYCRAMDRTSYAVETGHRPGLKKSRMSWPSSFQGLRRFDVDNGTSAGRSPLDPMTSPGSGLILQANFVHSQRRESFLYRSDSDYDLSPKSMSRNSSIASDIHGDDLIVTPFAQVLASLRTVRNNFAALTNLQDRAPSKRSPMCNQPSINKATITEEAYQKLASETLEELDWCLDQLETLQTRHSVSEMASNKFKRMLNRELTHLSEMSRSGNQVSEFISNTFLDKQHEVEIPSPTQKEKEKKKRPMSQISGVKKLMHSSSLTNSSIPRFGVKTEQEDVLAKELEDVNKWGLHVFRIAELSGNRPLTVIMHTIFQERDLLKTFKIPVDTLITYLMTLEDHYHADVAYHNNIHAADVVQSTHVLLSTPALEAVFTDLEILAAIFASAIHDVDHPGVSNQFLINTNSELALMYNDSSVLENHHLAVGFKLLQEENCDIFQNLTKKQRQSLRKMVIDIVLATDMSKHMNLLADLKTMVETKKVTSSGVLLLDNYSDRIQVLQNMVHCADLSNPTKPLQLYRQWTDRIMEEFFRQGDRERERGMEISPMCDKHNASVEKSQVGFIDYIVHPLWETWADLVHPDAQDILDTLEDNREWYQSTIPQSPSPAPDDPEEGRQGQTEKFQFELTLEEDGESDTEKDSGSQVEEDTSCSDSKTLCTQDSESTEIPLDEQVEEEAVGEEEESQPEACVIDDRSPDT
Sequence of hPDE4B (Q07343 whole entry): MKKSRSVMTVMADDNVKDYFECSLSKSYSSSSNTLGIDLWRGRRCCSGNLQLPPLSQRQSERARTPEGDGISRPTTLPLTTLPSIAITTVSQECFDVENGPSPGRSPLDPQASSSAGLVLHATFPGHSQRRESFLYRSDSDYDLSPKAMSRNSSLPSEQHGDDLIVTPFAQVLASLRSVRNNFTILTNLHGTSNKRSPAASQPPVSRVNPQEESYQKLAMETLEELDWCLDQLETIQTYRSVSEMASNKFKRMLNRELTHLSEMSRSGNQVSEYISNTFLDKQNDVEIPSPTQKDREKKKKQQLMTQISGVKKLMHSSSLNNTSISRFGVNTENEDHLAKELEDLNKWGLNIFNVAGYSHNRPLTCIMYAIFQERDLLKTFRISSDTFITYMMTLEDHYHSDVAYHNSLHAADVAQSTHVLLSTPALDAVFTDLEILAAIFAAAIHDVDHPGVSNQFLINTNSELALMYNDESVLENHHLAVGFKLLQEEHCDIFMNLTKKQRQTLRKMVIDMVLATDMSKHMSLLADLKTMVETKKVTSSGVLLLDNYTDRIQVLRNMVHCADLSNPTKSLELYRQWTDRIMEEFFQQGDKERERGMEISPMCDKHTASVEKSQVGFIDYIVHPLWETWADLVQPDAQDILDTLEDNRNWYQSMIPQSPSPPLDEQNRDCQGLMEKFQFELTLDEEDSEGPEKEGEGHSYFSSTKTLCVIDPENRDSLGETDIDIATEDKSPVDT

For “1-[5-(3′-Chloro-2-fluoro-6-methoxy-biphenyl-3-ylmethyl)-pyrimitlin-2-yl]-piperidine-2-carboxylic acid [Example A-041]”, the values for the IC50 in test [1] (setting [3]) and in test [2] (setting [4]) were below 5 µM and 5 to 20 µM, respectively.
In turn, `COc1ccc(CN2C(=O)c3ccccc3S2(=O)=O)cc1-c1cccc([N+](=O)[O-])c1` [Example A-002, 2-(6-Methoxy-3′-nitro-biphenyl-3-ylmethyl)-1,1-dioxo-1,2-dihydro-1lambda*6*-benzo[d]isothiazol-3-one] had an IC50 in test [1] of 5 to 20 µM.
`COc1ccc(Cn2cnc3c(Cl)nc(N)nc32)cc1-c1cccc([N+](=O)[O-])c1` [Example A-003, 6-Chloro-9-(6-methoxy-3′-nitro-biphenyl-3-ylmethyl)-9H-purin-2-ylamine]: the IC50 is below 5 µM in test [1] and 5 to 20 µM in test [2].
For `COc1ccc(Cn2cnc3c(=O)[nH]c(N)nc32)cc1-c1cccc([N+](=O)[O-])c1` [Example A-004, 2-Amino-9-(6-methoxy-3′-nitro-biphenyl-3-ylmethyl)-1,9-dihydro-purin-6-one] the same measures were 5 to 20 µM and 20 to 40 µM.
`COC(=O)[C@H]1C[C@H](O)CN1Cc1ccc(OC)c(-c2cccc([N+](=O)[O-])c2)c1` [Example A-005, (2R,4S)-4-Hydroxy-1-(6-methoxy-3′-nitro-biphenyl-3-ylmethyl)-pyrrolidine-2-carboxylic acid methyl ester] yielded an IC50 in test [1] of 20 to 40 µM.
Consider `COc1ccc(Cc2c(C)nn(CC(=O)O)c2C)cc1-c1cccc([N+](=O)[O-])c1` [Example A-006, [4-(6-Methoxy-3′-nitro-biphenyl-3-ylmethyl)-3,5-dimethyl-pyrazol-1-yl]-acetic acid], for which the figures for the IC50 in test [1] and in test [2] were below 5 µM and 5 to 20 µM, respectively.
On to `COc1ccc(Cn2ccc(C(=O)O)cc2=O)cc1-c1cccc([N+](=O)[O-])c1` [Example A-007, 1-(6-Methoxy-3′-nitro-biphenyl-3-ylmethyl)-2-oxo-1,2-dihydro-pyridine-4-carboxylic acid], for which the IC50 in test [1] and in test [2] was 5 to 20 µM throughout.
For `COc1ccc(Cc2ccc(NS(N)(=O)=O)cc2)c(F)c1-c1cccc(Cl)c1` [Example A-008], the IC50 in test [1] and in test [2] was below 5 µM each time.
As for `COc1ccc(Cc2ccc(NS(N)(=O)=O)nc2)c(F)c1-c1cccc(Cl)c1` [Example A-010], the IC50 in test [1] and in test [2] was below 5 µM in each case.
On to `COc1ccc(Cc2ccc(NS(N)(=O)=O)c(O)c2)c(F)c1-c1cccc(Cl)c1` [Example A-011], for which the IC50 was below 5 µM in test [1] and 5 to 20 µM in test [2].
For the compound `COc1ccc(Cc2cnc(NS(N)(=O)=O)nc2)c(F)c1-c1cccc(Cl)c1` [Example A-012], the IC50 in test [1] and in test [2] was below 5 µM throughout.
Regarding `COc1ccc(Cc2ccc(NC(N)=O)[n+]([O-])c2)c(F)c1-c1cccc(Cl)c1` [Example A-014], the IC50 in test [1] is below 5 µM; in test [2], 5 to 20 µM.
Consider `COc1ccc(Cc2cnc(NC(N)=O)[n+]([O-])c2)c(F)c1-c1cccc(Cl)c1` [Example A-015], for which the IC50 in test [1] and in test [2] was below 5 µM in each case.
For the compound `COc1ccc(Cc2ccc(NS(N)(=O)=O)cc2)c(F)c1-c1cccc(C(C)=O)c1` [Example A-016], the IC50 in test [1] and in test [2] was below 5 µM in each case.
Turning to `COc1ccc(Cc2cnc(NS(N)(=O)=O)nc2)c(F)c1-c1cccc(C(C)=O)c1` [Example A-017], the IC50 in test [1] and in test [2] was below 5 µM throughout.
Regarding `COC(=O)c1ccc(Cc2ccc(OC)c(-c3cccc(C(C)=O)c3)c2F)cc1` [Example A-018, 4-(3′-Acetyl-2-fluoro-6-methoxy-biphenyl-3-ylmethyl)-benzoic acid methyl ester], the values for the IC50 in test [1] and in test [2] were below 5 µM and 20 to 40 µM, respectively.
Regarding `COc1ccc(Cc2ccc(C(=O)O)cc2)c(F)c1-c1cccc(C(C)=O)c1` [Example A-019, 4-(3′-Acetyl-2-fluoro-6-methoxy-biphenyl-3-ylmethyl)-benzoic acid], the IC50 in test [1] is below 5 µM; in test [2], 5 to 20 µM.
For `COC(=O)c1ccc(Cc2ccc(OC)c(-c3cccc(C(C)=O)c3)c2F)cn1` [Example A-020, 5-(3′-Acetyl-2-fluoro-6-methoxy-biphenyl-3-ylmethyl)-pyridine-2-carboxylic acid methyl ester] the same measures were below 5 µM and below 5 µM.
For `COc1ccc(Cc2ccc(C(=O)O)nc2)c(F)c1-c1cccc(C(C)=O)c1` [Example A-021, 5-(3′-Acetyl-2-fluoro-6-methoxy-biphenyl-3-ylmethyl)-pyridine-2-carboxylic acid], the IC50 in test [1] and in test [2] was 5 to 20 µM throughout.
`COc1ccc(Cc2ccc(NC(=O)NCC(=O)O)cc2)c(F)c1-c1cccc(Br)c1` [Example A-022, {3-[4-(3′-Bromo-2-fluoro-6-methoxy-biphenyl-3-ylmethyl)-phenyl]-ureido}-acetic acid] gave an IC50 in test [1] below 5 µM.
On to `COc1ccc(Cc2ccc(NC(=O)NCCC(=O)O)cc2)c(F)c1-c1cccc(Br)c1` [Example A-023, 3-{3-[4-(3′-Bromo-2-fluoro-6-methoxy-biphenyl-3-ylmethyl)-phenyl]-ureido}-propionic acid], for which, in test [1], the IC50 is below 5 µM.
Same read-out and setting: the same measure for `CCOC(=O)CNC(=O)Nc1nnc(Cc2ccc(OC)c(-c3cccc(Cl)c3)c2F)s1` [Example A-024, {3-[5-(3′-Chloro-2-fluoro-6-methoxy-biphenyl-3-ylmethyl)-[1,3,4]thiadiazol-2-yl]-ureido}-acetic acid ethyl ester]: below 5 µM; for `CCOC(=O)CCNC(=O)Nc1nnc(Cc2ccc(OC)c(-c3cccc(Cl)c3)c2F)s1` [Example A-025, 3-{3-[5-(3′-Chloro-2-fluoro-6-methoxy-biphenyl-3-ylmethyl)-[1,3,4]thiadiazol-2-yl]-ureido}-propionic acid ethyl ester]: below 5 µM; for `COc1ccc(Cc2nnc(NC(=O)NCC(=O)O)s2)c(F)c1-c1cccc(Cl)c1` [Example A-026, {3-[5-(3′-Chloro-2-fluoro-6-methoxy-biphenyl-3-ylmethyl)-[1,3,4]thiadiazol-2-yl]-ureido}-acetic acid]: below 5 µM.
On the same count and under the same terms, the same measure for `CCOC(=O)CCNC(=O)Nc1ccc(Cc2ccc(OC)c(-c3cccc(Cl)c3)c2F)cn1` [Example A-029]: below 5 µM; for `CCOC(=O)C1CCN(C(=O)c2ccc(Cc3ccc(OC)c(-c4cccc(Cl)c4)c3F)cn2)CC1` [Example A-033, 1-[5-(3′-Chloro-2-fluoro-6-methoxy-biphenyl-3-ylmethyl)-pyridine-2-carbonyl]-piperidine-4-carboxylic acid ethyl ester]: below 5 µM; for `CCOC(=O)c1cn2cc(Cc3ccc(OC)c(-c4cccc(Cl)c4)c3F)ccc2n1` [Example A-039, 6-(3′-Chloro-2-fluoro-6-methoxy-biphenyl-3-ylmethyl)-imidazo[1,2-a]pyridine-2-carboxylic acid ethyl ester]: below 5 µM.
Take `COC(=O)C1CCN(c2ncc(Cc3ccc(OC)c(-c4cccc(Cl)c4)c3F)cn2)C1` (stereo not drawn) [Example A-045, 1-[5-(3′-Chloro-2-fluoro-6-methoxy-biphenyl-3-ylmethyl)-pyrimidin-2-yl]-pyrrolidine-3-carboxylic acid methyl ester]: the IC50 in test [1] is below 5 µM.
In the case of `COc1ccc(Cc2ccc(N3CCC3C(=O)O)nc2)c(F)c1-c1cccc(Cl)c1` (stereo not drawn) [Example A-055, 1-[5-(3′-chloro-2-fluoro-6-methoxy-biphenyl-3-ylmethyl)-pyridin-2-yl]-azetidine-2-carboxylic acid], the IC50 in test [2] (setting [4]) was below 5 µM.
In test [1], `CCNC(=O)N(CC(=O)O)c1ccc(Cc2ccc(OC)c(-c3cccc(Cl)c3)c2F)cn1` [Example A-056, {1-[5-(3′-chloro-2-fluoro-6-methoxy-biphenyl-3-ylmethyl)-pyridin-2-yl]-3-ethyl-ureido}-acetic acid] registered an IC50 below 5 µM.
Take `NC(=O)Nc1ccc(Cc2ccc(OS(=O)(=O)O)c(-c3cccc(Cl)c3)c2)cc1` [Example A-062, Sodium sulfate of [4-(3′-Chloro-6-hydroxy-biphenyl-3-ylmethyl)-phenyl]-urea]: the IC50 in test [1] (setting [3]) is below 5 µM.
`COC(=O)[C@@H]1CCCN1c1ccc(Cc2ccc(OC)c(-c3cccc(Cl)c3)c2F)cn1` [Example A-069, (S)-1-[5-(3′-chloro-2-fluoro-6-methoxy-biphenyl-3-ylmethyl)-pyridin-2-yl]-pyrrolidine-2-carboxylic acid methyl ester] had an IC50 in test [1] below 5 µM.
On the same count and under the same terms, the same measure for `COc1ccc(Cc2ccc(C(=O)O)nc2)cc1-c1cccc(Cl)c1` [Example A-071, 5-(3′-Chloro-6-methoxy-biphenyl-3-ylmethyl)-pyridine-2-carboxylic acid]: below 5 µM; for `COc1ccc(Cc2ccc(N(C)CC(=O)O)nc2)cc1-c1cccc(Cl)c1` [Example A-077, {[5-(3′-chloro-6-methoxy-biphenyl-3-ylmethyl)-pyridin-2-yl]-methyl-amino}-acetic acid]: below 5 µM; for `CN(CC(=O)O)c1ccc(Cc2ccc(OC(F)F)c(-c3cccc(Cl)c3)c2)cn1` [Example A-078, {[5-(3′-Chloro-6-difluoromethoxy-biphenyl-3-ylmethyl)-pyridin-2-yl]-methyl-amino}-acetic acid]: below 5 µM.
On the same count and under the same terms, the value for `C[C@H](C(=O)O)N(C)c1ccc(Cc2ccc(OC(F)F)c(-c3cccc(Cl)c3)c2)cn1` [Example A-079, (R)-2-{[5-(3′-Chloro-6-difluoromethoxy-biphenyl-3-ylmethyl)-pyridin-2-yl]-methyl-amino}-propionic acid] was below 5 µM; that for `COc1ccc(Cc2ccc(F)cc2)cc1-c1ccc[n+]([O-])c1` [Example B-084, 3-[5-(4-Fluoro-benzyl)-2methoxy-phenyl]-pyridine 1-oxide] was 5 to 20 µM.

Source of the values: patent publication US20120213758A1, “BIARYL PDE4 INHIBITORS FOR TREATING PULMONARY AND CARDIOVASCULAR DISORDERS” (DeCODE Genetics enf, priority 2007, published 2012).
